The source made the active and inactive calls. No cut-off for these calls is given here.
Legend:
[1] = test system: Cortical neurone; assay: Neuroprotective activity against oxygen glucose deprivation induced ischemic stroke model in primary C57BL/6J E14-17 mouse Cortical neurons assessed as increase in cell viability at 0.5 to 20 uM incubated for 24 hrs by CCK-8 assay; format: functional, cell-based; conditions: dose 0.5-20 µM
[2] = test system: Cortical neurone; assay: Cytotoxicity against primary C57BL/6J E14-17 mouse Cortical neuron assessed as decrease in cell viability upto 50 uM incubated for 24 hrs by CCK-8 assay; format: toxicity, cell-based
[3] = test system: Cortical neurone; assay: Cytotoxicity against primary C57BL/6J E14-17 mouse Cortical neuron assessed as decrease in cell viability at 1 uM incubated for 24 hrs by CCK-8 assay relative to control; format: toxicity, cell-based
[4] = test system: Cortical neurone; assay: Neuroprotective activity against oxygen glucose deprivation induced ischemic stroke model in primary C57BL/6J E14-17 mouse Cortical neurons assessed as increase in cell viability at 1 uM incubated for 24 hrs by CCK-8 assay (Rvb= 57.43 +/- 2.54 %); format: functional
[5] = test system: Cortical neurone; assay: Cytotoxicity against primary C57BL/6J E14-17 mouse Cortical neuron assessed as decrease in cell viability at 10 uM incubated for 24 hrs by CCK-8 assay relative to control; format: toxicity, cell-based
[6] = test system: Cortical neurone; assay: Neuroprotective activity against oxygen glucose deprivation induced ischemic stroke model in primary C57BL/6J E14-17 mouse Cortical neurons assessed as increase in cell viability at 10 uM incubated for 24 hrs by CCK-8 assay (Rvb= 57.43 +/- 2.54 %); format: functional
[7] = test system: SH-SY5Y; assay: Neuroprotective activity against oxygen glucose deprivation induced ischemic stroke model in human SH-SY5Y cells assessed as cell viability at 2 uM incubated for 24 hrs by CCK-8 assay; format: functional; conditions: read-out: Activity

| Compound | Activity [1] | Activity [2] | Activity [3] [%] | Activity [4] [%] | Activity [5] [%] | Activity [6] [%] | Activity ([4]; 24 h, 1 µM) [%] | Activity ([6]; 24 h, 10 µM) [%] | viability at 2 µM [7] [%] |
| --- | --- | --- | --- | --- | --- | --- | --- | --- | --- |
| CN(C)[C@H]1CC[C@@H](c2ccc(Cl)c(Cl)c2)c2ccccc21 | Active | Non-Toxic | – | – | – | – | – | – | – |
| Clc1ccc(CN[C@@H]2CC[C@@H](c3ccc(Cl)c(Cl)c3)c3ccccc32)cc1Cl | – | – | 101.08 | 58.46 | 105.41 | 55.64 | – | – | – |
| CC(N[C@@H]1CC[C@@H](c2ccc(Cl)c(Cl)c2)c2ccccc21)c1ccccc1 (stereo partly specified) | – | – | 98.48 | 45.67 | 45.32 | 51.75 | – | – | – |
| Clc1ccc([C@@H]2CC[C@@H](NCCN3CCNCC3)c3ccccc32)cc1Cl | – | – | 90.76 | 56.76 | 31.8 | 28.28 | – | – | – |
| CN[C@H]1CC[C@@H](c2ccc(Cl)c(Cl)c2)c2ccccc21 | Active | – | – | – | – | – | – | – | – |
| CN[C@@H]1CC[C@@H](c2ccc(Cl)c(Cl)c2)c2ccccc21 (racemic) | – | – | 94.5 | 59.29 | 92.08 | 65.74 | – | – | – |
| CCCCCCCCN(C)[C@@H]1CC[C@@H](c2ccc(Cl)c(Cl)c2)c2ccccc21 (racemic) | Active | Non-Toxic | – | – | – | – | – | – | – |
| CCCCCCCCN(C)[C@H]1CC[C@@H](c2ccc(Cl)c(Cl)c2)c2ccccc21 (racemic) | Active | – | – | – | – | – | – | – | – |
| CN[C@H]1CC[C@@H](c2ccc(Cl)c(Cl)c2)c2ccccc21 (racemic) [SERTRALINE] | – | – | 96.32 | – | 92.98 | – | 60.36 | 45.76 | – |
| NCCN[C@@H]1CC[C@@H](c2ccc(Cl)c(Cl)c2)c2ccccc21 (relative stereo) | – | – | 103.68 | 24.79 | 24.73 | 3.53 | – | – | – |
| NCCCCCCN[C@@H]1CC[C@@H](c2ccc(Cl)c(Cl)c2)c2ccccc21 (relative stereo) | – | – | 48.84 | – | 22.62 | 3.43 | – | – | – |
| COc1ccc(CN[C@@H]2CC[C@@H](c3ccc(Cl)c(Cl)c3)c3ccccc32)cc1OC (relative stereo) | Dose-Dependent Effect | Toxic | 99.79 | 62.06 | 95.48 | 66.65 | – | – | – |
| Clc1ccc([C@@H]2CC[C@@H](NCc3ccc4c(c3)OCO4)c3ccccc32)cc1Cl (relative stereo) | – | – | 104.95 | 63.19 | 95.94 | 57.62 | – | – | – |
| Clc1ccc([C@@H]2CC[C@@H](NCc3cccc4ccccc34)c3ccccc32)cc1Cl (relative stereo) | – | – | 95.27 | 61.36 | 96.52 | 65.01 | – | – | – |
| COc1ccc(CN[C@@H]2CC[C@@H](c3ccc(Cl)c(Cl)c3)c3ccccc32)cc1 (relative stereo) | – | – | 98.78 | 56.57 | 85.78 | 60.68 | – | – | – |
| CC(C)(C)OC(=O)N1CCN(CCN[C@@H]2CC[C@@H](c3ccc(Cl)c(Cl)c3)c3ccccc32)CC1 (relative stereo) | – | – | 100.27 | 63.76 | 93.92 | 57.97 | – | – | – |
| CCCCN[C@@H]1CC[C@@H](c2ccc(Cl)c(Cl)c2)c2ccccc21 (relative stereo) | – | – | 95.75 | 54.27 | 94.94 | 50.99 | – | – | – |
| COc1cccc(CN[C@@H]2CC[C@@H](c3ccc(Cl)c(Cl)c3)c3ccccc32)c1 (relative stereo) | – | – | 95.52 | 51.08 | 97.09 | 47.87 | – | – | – |
| NCCCCN[C@@H]1CC[C@@H](c2ccc(Cl)c(Cl)c2)c2ccccc21 (relative stereo) | – | – | 90.11 | 33.3 | 22.9 | 3.07 | – | – | – |
| Cc1ccc(CN[C@@H]2CC[C@@H](c3ccc(Cl)c(Cl)c3)c3ccccc32)cc1 (relative stereo) | – | – | 92.92 | 60.9 | 84.46 | 59.01 | – | – | – |
| FC(F)(F)c1cccc(CN[C@@H]2CC[C@@H](c3ccc(Cl)c(Cl)c3)c3ccccc32)c1 (relative stereo) | – | – | 90.68 | 65.74 | 85.87 | 59 | – | – | – |

| Compound | Activity [1] | Activity [2] | Activity [3] [%] | Activity [4] [%] | Activity [5] [%] | Activity [6] [%] | Activity ([4]; 24 h, 1 µM) [%] | Activity ([6]; 24 h, 10 µM) [%] | viability at 2 µM [7] [%] |
| --- | --- | --- | --- | --- | --- | --- | --- | --- | --- |
| Clc1ccc([C@@H]2CC[C@@H](NC3CCCCC3)c3ccccc32)cc1Cl (relative stereo) | Dose-Dependent Effect | Toxic | 97.01 | 61.62 | 102.77 | 69.46 | – | – | – |
| Cc1cccc(CN[C@@H]2CC[C@@H](c3ccc(Cl)c(Cl)c3)c3ccccc32)c1 (relative stereo) | Dose-Dependent Effect | Toxic | 96.85 | 65.53 | 102.54 | 81.18 | – | – | – |
| Clc1ccc([C@@H]2CC[C@@H](NCC3CCCCC3)c3ccccc32)cc1Cl (relative stereo) | – | – | 100.42 | 64.56 | 103.51 | 62.02 | – | – | – |
| CCCCCC(C)N[C@@H]1CC[C@@H](c2ccc(Cl)c(Cl)c2)c2ccccc21 (relative stereo) | – | – | 89.48 | 58.02 | 84.74 | 60.07 | – | – | – |
| O=C(Cc1ccccc1)N[C@@H]1CC[C@@H](c2ccc(Cl)c(Cl)c2)c2ccccc21 (relative stereo) | Active | Toxic | – | – | – | – | – | – | – |
| CCCCCCN[C@@H]1CC[C@@H](c2ccc(Cl)c(Cl)c2)c2ccccc21 (relative stereo) | Dose-Dependent Effect | Toxic | 98.87 | 62.38 | 113.14 | 81.04 | – | – | – |
| C=CCC(=O)N[C@@H]1CC[C@@H](c2ccc(Cl)c(Cl)c2)c2ccccc21 (relative stereo) | Active | Toxic | – | – | – | – | – | – | – |
| Clc1ccc([C@@H]2CC[C@@H](NCCCCc3ccccc3)c3ccccc32)cc1Cl (relative stereo) | – | – | 98.28 | 57.11 | 94.37 | 58.59 | – | – | – |
| CC(=O)N[C@@H]1CC[C@@H](c2ccc(Cl)c(Cl)c2)c2ccccc21 (relative stereo) | Dose-Dependent Effect | Toxic | 102.6 | 66.22 | 101.23 | 77.31 | – | – | – |
| Clc1ccc([C@@H]2CC[C@@H](NC3CC3)c3ccccc32)cc1Cl (relative stereo) | – | – | 100.03 | 62.49 | 109.93 | 66.66 | – | – | – |
| CCCC(=O)N[C@@H]1CC[C@@H](c2ccc(Cl)c(Cl)c2)c2ccccc21 (relative stereo) | Active | Toxic | – | – | – | – | – | – | – |
| O=C(CCCCl)N[C@@H]1CC[C@@H](c2ccc(Cl)c(Cl)c2)c2ccccc21 (relative stereo) | – | – | 92.02 | 63.86 | 84.35 | 58.31 | – | – | – |
| CC(C)(C)c1ccc(CN[C@@H]2CC[C@@H](c3ccc(Cl)c(Cl)c3)c3ccccc32)cc1 (relative stereo) | – | – | 93.91 | 56.78 | 93.23 | 60.98 | – | – | – |
| CC(C)(C)OC(=O)NCCN[C@@H]1CC[C@@H](c2ccc(Cl)c(Cl)c2)c2ccccc21 (relative stereo) | – | – | 98.85 | 58.81 | 94.48 | 54.41 | – | – | – |
| Clc1ccc([C@@H]2CC[C@@H](NCCc3c[nH]c4ccccc34)c3ccccc32)cc1Cl (relative stereo) | – | – | 104.13 | 52.97 | 96.14 | 59.42 | – | – | – |
| CC(C)CN[C@@H]1CC[C@@H](c2ccc(Cl)c(Cl)c2)c2ccccc21 (relative stereo) | – | – | 96.1 | 56.47 | 73.99 | 30.22 | – | – | – |
| Clc1ccc([C@@H]2CC[C@@H](N3CCCC3)c3ccccc32)cc1Cl (relative stereo) | Active | Toxic | – | – | – | – | – | – | – |
| CCCN[C@@H]1CC[C@@H](c2ccc(Cl)c(Cl)c2)c2ccccc21 (relative stereo) | – | – | 96.43 | 62.89 | 100.55 | 55.53 | – | – | – |
| N[C@@H]1CC[C@@H](c2ccc(Cl)c(Cl)c2)c2ccccc21 (relative stereo) [DASOTRALINE] | – | – | 99.05 | 57.14 | 95.38 | 56.94 | – | – | – |
| CC1=NN(c2ccccc2)C(=O)C1 [EDARAVONE] | – | – | 98.61 | 64.39 | 96.6 | 64.15 | – | – | 71.3 |

From ChEMBL document CHEMBL5360547 (Eur J Med Chem, 2023)
